{"source": "paper PMC5584945", "about": "“Evaluation of robenidine analog NCL195 as a novel broad-spectrum antibacterial agent” (PLoS ONE, 2017)", "key": {"A. baumannii": {"test_system": "A. baumannii", "assay": "MIC alone and checkerboard with EDTA or polymyxin B", "format": "cell-based", "details": "for MIC: Acinetobacter baumannii", "protocol": "(§1) MICs for NCL812 and its analogs (serial two-fold dilutions commencing at 128 μg/ml) were determined (in duplicate) in round bottom 96-well microtitre trays (Sarstedt 82.1582.001), using the broth micro-dilution method recommended by the Clinical and Laboratory Standards Institute (CLSI). […] MIC50, MIC90 and MIC range for NCL812, NCL195 and NCL219 were calculated against each S. pneumoniae, S. aureus or VRE isolate. To assess the potential activity of NCL195 against Gram-negative bacteria, MICs against Acinetobacter spp, E. coli, K. pneumoniae, P. aeruginosa, Proteus spp and Neisseria meningitidis were performed in the presence or absence of 0.08 mM-20 mM EDTA in a standard checkerboard assay."}, "Neisseria meningitidis": {"test_system": "Neisseria meningitidis", "assay": "Activity against Neisseria meningitidis", "format": "cell-based", "protocol": "as §1"}, "S. aureus ATCC 29213": {"test_system": "S. aureus ATCC 29213", "assay": "Macromolecular synthesis inhibition", "format": "cell-based, Staphylococcus aureus", "details": "0.25 to 8-fold MIC; exponentially growing culture", "protocol": "(§2) Morphological appearance and morphometric analysis of the cell membrane of S. pneumoniae D39 after exposure to either 1 μg/ml, 4 μg/ml or 16 μg/ml of NCL812 was determined using TEM, as described in S1 File (Supplementary Methods). For S. aureus ATCC 29213, macromolecular (DNA, RNA, protein, cell wall, and lipid) synthesis inhibition studies were performed using concentrations of NCL812 that were equivalent to 0, 0.25, 0.5, 1, 2, 4 or 8-fold the MIC value (4 μg/ml), as detailed in S1 File (Supplementary Methods).\nEffect of NCL812 on S. aureus ATCC29213 macromolecular synthesis. […]\nA 5% DMSO treated culture served as the “no drug” control for all experiments. […] After washing three times with 5 ml of cold 5% TCA, the filters were rinsed two times with 5 ml 100% ethanol, allowed to dry, and then counted using a Beckman LS3801 liquid scintillation counter.\nTo test the effect of NCL812 on cell wall synthesis, bacteria were transferred to M9 minimal medium and added to 1.5 ml eppendorf tubes (100 μl/tube) containing various concentrations of test compound or control antibiotics (5 μl) at 20X the final concentration in 100% DMSO as described above. […] After washing three times with 5 ml of 0.1% SDS, the filters were rinsed two times with 5 ml of deionized water, allowed to dry, and then counted using a Beckman LS3801 liquid scintillation counter. […]"}, "S. pneumoniae D39": {"test_system": "S. pneumoniae D39", "assay": "TEM morphometric analysis of cell membrane", "format": "cell-based, Streptococcus pneumoniae", "details": "16 μg/ml, 6 h exposure", "protocol": "as §2\nEffect of NCL812 on S. pneumoniae D39 cell membrane ultra-structure. Morphological appearance and morphometric analysis of the cell membrane of S. pneumoniae D39 after exposure to either 1 µg/ml, 4 µg/ml or 16 µg/ml of NCL812 was determined using TEM. […] Cultures were then exposed to either 1 µg/ml, 4 µg/ml or 16 µg/ml of NCL812 and harvested at 6 or 12 h by centrifugation at […] for 20 min and washed twice in 50 ml PBS. Critical time points for TEM work were determined by analyzing trends in the growth curves produced from the kill kinetics studies. Samples were resuspended in PBS containing 20% glycerol and stored at -80°C until required. […]\nSamples were fixed using modified protocols defined by a previous study examining cell wall ultrastructure of S. pneumoniae. […] Images were obtained at 130000× magnification and analyzed using analySIS (Olympus Soft Imaging Systems)."}}, "note": "Read-outs that look alike come from different tables or passages of the source."}
{"compound": "Cc1ccc(/C=N/Nc2cc(N/N=C/c3ccc(C)cc3)nc(N)n2)cc1", "note": "[NCL195, 4,6-bis(2-((E)-4-methylbenzylidene)hydrazinyl)pyrimidin-2-amine]", "values": [{"measurement": "MIC of NCL195 in combination with EDTA", "setting": "A. baumannii; A. baumannii ATCC 12457, with EDTA 0.25 mM", "value": 4, "unit": "µg/mL"}, {"measurement": "MIC of NCL195 in combination with polymyxin B", "setting": "A. baumannii; A. baumannii ATCC 12457", "value": 0.5, "unit": "µg/mL"}, {"measurement": "MIC of NCL195 in combination with EDTA", "setting": "A. baumannii; A. baumannii ATCC 19606, with EDTA 0.5 mM", "value": 2, "unit": "µg/mL"}, {"measurement": "MIC of NCL195 in combination with polymyxin B", "setting": "A. baumannii; A. baumannii ATCC 19606", "value": 0.5, "unit": "µg/mL"}, {"measurement": "MIC", "setting": "A. baumannii; ATCC12457, A. baumannii ATCC 12457, read-out: MIC, agent alone", "value": "> 128", "unit": "µg/mL"}, {"measurement": "MIC", "setting": "A. baumannii; ATCC19606, A. baumannii ATCC 19606, read-out: MIC, agent alone", "value": "> 128", "unit": "µg/mL"}, {"measurement": "MIC", "setting": "A. baumannii; A. baumannii isolates without strain name (one table line per isolate), read-out: MIC", "value": "> 128", "unit": "µg/mL"}, {"measurement": "Activity against Neisseria meningitidis", "setting": "Neisseria meningitidis", "value": "bactericidal"}]}
{"compound": "Cl.N=C(NN=Cc1ccc(Cl)cc1)NN=Cc1ccc(Cl)cc1", "note": "[NCL812, 2,2'-bis[(4-chlorophenyl)methylene] carbonimidic dihydrazide hydrochloride]", "values": [{"measurement": "Effect on macromolecular synthesis pathways", "setting": "S. aureus ATCC 29213", "value": "inhibited DNA (A), RNA (B), protein (C), cell wall (D), and lipid (E) pathways"}, {"measurement": "Periplasmic space width", "setting": "S. pneumoniae D39; untreated 3.91 ± 0.14 nm", "value": "4.54 ±0.096", "unit": "nm"}, {"measurement": "Cell membrane thickness", "setting": "S. pneumoniae D39; untreated 4.35 ± 0.24 nm", "value": "6.43 ± 0.29", "unit": "nm"}]}
